{"source": "a melting point compilation (Tetko et al.; mined from patent text by program, amines drawn as free bases though some values may be those of a salt)"}
{"units": {"melting point": "°C"}}
{"smiles": "Cc1ccccc1C=C1CCn2c1nc1ccc(C(N)=O)cc1c2=O", "melting point": "347 to 349"}
{"smiles": "CC1(C)C(C=C(Br)Br)C1C(=O)O", "note": "(centres undefined)", "melting point": "116 to 117"}
{"smiles": "Cc1c(CCC#N)c2c(c(C(C)C)c1OCc1ccccc1)CC(C)(C)O2", "melting point": "158 to 159"}
{"smiles": "COc1ccc(-c2nc3nccnc3[nH]2)c(N(C)C)c1", "melting point": "279 to 280"}
{"smiles": "N#Cc1ccc(C(=O)NC2CCCNC(=O)C2)cc1", "note": "(centres undefined)", "melting point": "189 to 190"}
{"smiles": "COc1c2c(cc3ccncc13)OCO2", "melting point": "144 to 145"}
{"smiles": "O=C1CCC(c2ccccc2F)=NN1", "melting point": "119 to 121"}
{"smiles": "C=CC(C)(C)CC(NC(=O)c1ccc(Cl)cc1)NC(=N[N+](=O)[O-])Nc1cccnc1", "note": "(centres undefined)", "melting point": 186}
{"smiles": "CC(O)C(C)(C)NC(N)=S", "note": "(centres undefined)", "melting point": "148 to 151"}
{"smiles": "Nc1ccc(Oc2cccc(C(F)(F)F)c2Cl)cc1", "melting point": "65 to 66.5"}
{"smiles": "COC(=O)/C=C/C=C(\\c1ccc(OC)cc1)c1cccnc1", "melting point": "75 to 76"}
{"smiles": "CCC(CC)OCc1c(-c2ccc(OC(F)F)c(OC3CC3)c2)[nH]c2cn[nH]c(=O)c12", "melting point": "133 to 162"}
{"smiles": "O=C(C=C(O)c1cccs1)C1CCN(Cc2ccccc2)CC1", "melting point": "80 to 83"}
{"smiles": "CCOC(=O)CCc1ccc(OCc2nc(-c3ccco3)oc2C)c(OC)c1", "melting point": "88 to 89"}
{"smiles": "COC(=O)c1cc2ccccc2o1", "melting point": "53.8 to 54"}
{"smiles": "O=C(O)c1cc(-c2ccc(C(F)(F)F)cc2)nc(-c2ccc(C(F)(F)F)cc2)c1", "melting point": "289 to 290"}
{"smiles": "Nc1nc2ccccc2c2c1nc(CO)n2CCCCNC(=O)C1CCCC1", "melting point": "183 to 186"}
{"smiles": "CCC(CC)Nc1nc(-c2cc(OC)c(OC)c(OC)c2)nc2sc(C#N)c(C)c12", "melting point": "226 to 228"}
{"smiles": "CCCCC1(O)C2=NCC3(CCCCC3)CN2c2ccccc21", "note": "(centres undefined)", "melting point": "192 to 195"}
{"smiles": "COc1cc2c(cc1Nc1ncc(Cl)c(Nc3ccccc3C(=O)OC(C)C)n1)CCN(CCCN(C)C)C(=O)C2", "melting point": "63 to 90"}
{"smiles": "CC(C)(C)OC(=O)N[C@H]1CCN(OCc2ccccc2)C1=O", "melting point": "113 to 114"}
{"smiles": "CCOC(=O)c1cnn(C)c1C(=O)Nc1ccn2nc(-c3cccnc3F)nc2c1", "melting point": "249 to 251"}
{"smiles": "CNC(=S)NCCCCCCc1csc(NC(=N)N)n1", "melting point": "162 to 164"}
{"smiles": "O=C(Nc1n[nH]c2cc(Cl)ccc12)c1ccccn1", "melting point": 177}
{"smiles": "COc1ccc2cc(C#N)ccc2c1Br", "melting point": "177 to 178"}
{"smiles": "CCOC(=O)NN1CCc2ccccc2C(Oc2ccc(C(F)(F)F)cc2)C1", "note": "(centres undefined)", "melting point": "156 to 157"}
{"smiles": "COC1OCC[C@@H]1NC(=O)[C@H](CC1CCCCC1)NC(=O)CNC(=O)COc1ccc2c(c1)Nc1ccccc1S2", "note": "(some centres undefined)", "melting point": "179 to 180"}
{"smiles": "COCc1c(C(=O)c2ccccc2)ncc2[nH]c3cccc(Cc4ccccc4Cl)c3c12", "melting point": "147 to 148"}
{"smiles": "Cc1c(-c2cccs2)nn2cc[nH]c12", "melting point": "205 to 208"}
{"smiles": "OC1CSC(Oc2ccc(-c3ccc(Cl)nc3)nc2)C(O)C1O", "note": "(centres undefined)", "melting point": 170}
{"smiles": "CC(C)Cc1ccc(C(F)C(=O)O)cc1", "note": "(centres undefined)", "melting point": "64 to 66"}
{"smiles": "CC(=O)c1ccc2c(c1)C(c1ccccc1F)=NC(C)C(=O)N2", "note": "(centres undefined)", "melting point": 203}
{"smiles": "Cc1ccc(-c2cc(N3CCCC3)c(C#N)c3c2-c2ccccc2C3=O)cc1", "melting point": "162 to 164"}
{"smiles": "Cc1cc2cc(C(=O)O)[nH]c2cc1C", "melting point": 266}
{"smiles": "COc1cc(N)c(Cl)cc1C(=O)NCC1CCN(CCCCCNCc2ccc(F)cc2)CC1", "melting point": "66 to 68"}
{"smiles": "CN(CCCCNC(=O)c1ccc2ccccc2c1)C1CCc2ncsc2C1", "note": "(centres undefined)", "melting point": 122}
{"smiles": "CCc1c(C(=O)OC)c(C(F)(F)F)nc(C(F)(F)F)c1C(=O)OC", "melting point": "45 to 47"}
{"smiles": "CCOC(=O)CCCC1CCN(CCOC(c2ccccc2)c2ccc(Cl)cc2)CC1", "note": "(centres undefined)", "melting point": "117 to 119"}
{"smiles": "CCC(Oc1ccc(Cl)c(C)c1)C(=O)NCc1ccccc1", "note": "(centres undefined)", "melting point": "95 to 97"}
{"smiles": "O=C(NC(O)C(F)(F)F)c1snc(Cl)c1Cl", "note": "(centres undefined)", "melting point": "90 to 93"}
{"smiles": "O=C(O)CS(=O)(=O)c1ccc2c(-c3ccccc3F)noc2c1Cl", "melting point": 204}
{"smiles": "Cc1oc2c(C)cc(C(=O)O)cc2c1C", "melting point": "235 to 237"}
{"smiles": "CN(C)C=Nc1c(Cl)cc(N=Cc2cccc(C(F)(F)F)c2)cc1Cl", "melting point": "62 to 64"}
{"smiles": "Cc1ccc(S(=O)(=O)N2[C@@H](CCn3cccn3)CC[C@H]2c2ccc(F)cc2)cc1", "note": "(racemic)", "melting point": 121}
{"smiles": "COc1cc2c(c3c1OC(C)(C)C3)C(c1cccc(-c3ccc(NC(C)=O)nc3)c1)=NC(C)(C)C2", "melting point": "208 to 209"}
{"smiles": "C=C(C)COc1ccc2c(C)cc(=O)oc2c1C(=O)C=Cc1cccc(OC)c1", "melting point": "85 to 87"}
{"smiles": "C#CC1(O)C=CC2C3CCC4=CC(=O)CC(OC(C)=O)C4C3CCC21CC", "note": "(centres undefined)", "melting point": "123 to 126"}
{"smiles": "CCCc1cc2ccc(CC(=O)OC)cc2n1C(C)=O", "melting point": "85 to 87"}
{"smiles": "C#CCNC(=C[N+](=O)[O-])NCCSCc1nccs1", "melting point": "121 to 123"}
{"smiles": "CC12C=CC(C)(CC(=O)C1)O2", "melting point": "62 to 63"}
{"smiles": "Cc1ncccc1NC(=NC#N)NC(NC(=O)CCCCc1ccccc1)C(C)(C)C", "note": "(centres undefined)", "melting point": "133 to 134"}
{"smiles": "Oc1ccc2c(c1)Nc1ccccc1S2", "melting point": "207 to 208"}
{"smiles": "C[Si](C)(C)c1c(Br)cnc2c1CCO2", "melting point": "92 to 94"}
{"smiles": "CC(CN1CCN(C)CC1)OC(=O)c1c[nH]c2ccccc12", "note": "(centres undefined)", "melting point": 166}
{"smiles": "CN(SN1CCOCC1)C(=O)ON=C1SCC(=O)NC1(C)C", "melting point": "180 to 182"}
{"smiles": "O=C(O)c1c2c(nc3ccc(F)cc13)-c1ccc(-c3ccccc3)cc1CC2", "melting point": "309 to 310"}
{"smiles": "COc1ccc(-c2sc3cc(OC)ccc3c2C(=O)c2ccc(O)cc2)cc1", "melting point": "114 to 116"}
{"smiles": "CN(C)S(=O)(=O)n1c(C(=S)NC(O)C(Cl)(Cl)Cl)nc2cc(Cl)c(Cl)cc21", "note": "(centres undefined)", "melting point": "158 to 160"}
{"smiles": "OC1(NC2=NCCS2)C(=Cc2ccccc2)CSCC1=Cc1ccccc1", "note": "(centres undefined)", "melting point": "171 to 172"}
{"smiles": "COC(=O)C(Cl)=Cc1ccc(Cl)cc1", "melting point": "78 to 80"}
{"smiles": "CS(=O)(=O)c1ccc(-c2cc3n(c2-c2ccc(F)cc2)CCC3)cc1", "melting point": 154}
{"smiles": "CC(C)(C)c1cc(CCCO)cc(C(C)(C)C)c1O", "melting point": "67.5 to 69"}
{"smiles": "COC(=O)Oc1cc(N2C(=O)C3=C(CCCC3)C2=O)c(F)cc1Cl", "melting point": "138 to 146"}
{"smiles": "N#Cc1cc2c(cc1C(F)(F)F)[nH]c(=O)c(=O)n2OC(=O)c1ccccc1", "melting point": 186}
{"smiles": "Nc1ncc(-c2cnc3ccc(-c4ccc(OCC5(CNC(=O)C6CC6)COC5)cc4)nn23)cc1C(F)(F)F", "melting point": "223 to 225"}
{"smiles": "COc1ccc(C(=O)O)c2cc(C3CCCC3)oc12", "melting point": "170 to 171"}
{"smiles": "O=C1Nc2ccccc2SC1CCCCO", "note": "(centres undefined)", "melting point": "101 to 102"}
{"smiles": "CC(=O)NCC1CC(c2ccc(-n3ccc(C=O)c3)c(F)c2)=NO1", "note": "(single isomer, unassigned; (-))", "melting point": "155 to 156"}
{"smiles": "O=C(O)CCc1c[nH]c2c(C(=O)c3ccccc3)cccc12", "melting point": 166}
{"smiles": "CCn1cc(C(=O)O)c(=O)c2cnc(N3CCN(Cc4ccc(NC(C)=O)cc4)CC3)nc21", "melting point": "216 to 219"}
{"smiles": "O=C(c1cc(C(F)(F)F)cc(C(F)(F)F)c1)N1CCC2(CC1)C(=O)NCN2c1ccc(Cl)cc1", "melting point": "233 to 235"}
{"smiles": "CC(C)n1nc(C#Cc2cccc(Cl)c2)ccc1=O", "melting point": "94 to 95"}
{"smiles": "CC12CCC(=O)C=C1CCCC2n1cc(-c2ccccc2)nn1", "note": "(centres undefined)", "melting point": "158 to 159"}
{"smiles": "CNc1ccc(NC(=O)c2ccc(-c3[nH]nc4c3C(=O)c3c(NC(=O)NN5CCOCC5)cccc3-4)s2)cc1", "melting point": 230}
